Results published in ChEMBL document CHEMBL3763061, “Inhibition of cancer cell invasion by new ((3,4-dihydroxy benzylidene)hydrazinyl)pyridine-3-sulfonamide analogs” (2016).
The source made the active and inactive calls. No cut-off for these calls is given here.

Key:
[1] = tested on: MDA-MB-231; assay: Cytotoxicity against human MDA-MB-231 cells assessed as growth inhibition at 10 uM after 24 hrs by MTT assay relative to control; format: functional; details: MDA-MB-231, 24 h, read-out: GI
[2] = tested on: A-375; assay: Cytotoxicity against human A375 cells assessed as growth inhibition at 10 uM after 24 hrs by MTT assay relative to control; format: functional; details: A-375, 24 h, read-out: GI
[3] = tested on: MDA-MB-231; assay: Antimigratory activity against human MDA-MB-231 cells assessed as density of migrated cells in scratched areas by wound scratch assay; format: functional, cell-based
[4] = tested on: MDA-MB-231; assay: Inhibition of alpha-smooth muscle actin expression in human MDA-MB-231 cells; format: functional, cell-based
[5] = tested on: MDA-MB-231; assay: Inhibition of N-cadherin expression in human MDA-MB-231 cells; format: functional, cell-based
[6] = tested on: MDA-MB-231; assay: Inhibition of collagen expression in human MDA-MB-231 cells; format: functional, cell-based
[7] = tested on: A-375; assay: Antimigratory activity against human A375 cells assessed as inhibition of cell migration by wound scratch assay; format: functional, cell-based
[8] = tested on: MDA-MB-231; assay: Inhibition of fibronectin expression in human MDA-MB-231 cells; format: functional, cell-based
[9] = tested on: A-375; assay: Inhibition of alpha-smooth muscle actin expression in human A375 cells; format: functional, cell-based
[10] = tested on: MDA-MB-231; assay: Antiinvasive activity against human MDA-MB-231 assessed as inhibition of tumor invasion cells by transwell invasion assay; format: functional, cell-based
[11] = tested on: A-375; assay: Inhibition of N-cadherin expression in human A375 cells; format: functional, cell-based
[12] = tested on: A-375; assay: Inhibition of collagen expression in human A375 cells; format: functional, cell-based
[13] = tested on: A-375; assay: Inhibition of fibronectin expression in human A375 cells; format: functional, cell-based
[14] = tested on: MDA-MB-231; assay: Inhibition of vimentin expression in human MDA-MB-231 cells; format: functional, cell-based
[15] = tested on: A-375; assay: Antiinvasive activity against human A375 cells assessed as inhibition of tumor invasion by transwell invasion assay; format: functional, cell-based
[16] = tested on: A-375; assay: Inhibition of vimentin expression in human A375 cells; format: functional, cell-based
[17] = tested on: A-375; assay: Inhibition of Rab27a expression in human A375 cells; format: functional, cell-based
[18] = tested on: MDA-MB-231; assay: Inhibition of Rab27a expression in human MDA-MB-231 cells; format: functional, cell-based

SMILES: CN1CCN(S(=O)(=O)c2ccc(N/N=C/c3ccc(O)c(O)c3)nc2)CC1
- inhibition of growth at 10 µM [1]: 2.1%
- inhibition of growth at 10 µM [2]: 1.29%

SMILES: O=S(=O)(c1ccc(N/N=C/c2ccc(O)c(O)c2)nc1)N1CCCCC1
- Activity [3]: Active
- inhibition of growth at 10 µM [1]: -15.6%
- inhibition of growth at 10 µM [2]: 5.06%

SMILES: O=S(=O)(c1ccc(N/N=C/c2ccc(O)c(O)c2)nc1)N1CCc2ccccc2C1
- inhibition [4]: inactive
- inhibition [5]: inactive
- Activity [3]: inactive
- inhibition [6]: inactive
- inhibition of growth at 10 µM [1]: 14.9%
- inhibition of growth at 10 µM [2]: 8.41%
- inhibition [7]: inactive
- inhibition [8]: inactive
- inhibition [9]: inactive
- inhibition [10]: inactive
- inhibition [11]: inactive
- inhibition [12]: inactive
- inhibition [13]: inactive
- inhibition [14]: Active
- inhibition [15]: inactive
- inhibition [16]: Active

SMILES: O=S(=O)(c1ccc(N/N=C/c2ccc(O)c(O)c2)nc1)N1CCOCC1
- inhibition of growth at 10 µM [1]: -5.98%
- inhibition of growth at 10 µM [2]: -9.25%

SMILES: O=S(=O)(c1ccc(N/N=C/c2ccc(O)c(O)c2)nc1)N1CCC(O)CC1
- inhibition of growth at 10 µM [1]: -15.8%
- inhibition of growth at 10 µM [2]: -14.1%

SMILES: CN(C)S(=O)(=O)c1ccc(N/N=C/c2ccc(O)c(O)c2)nc1
- inhibition of growth at 10 µM [1]: 4.81%
- inhibition of growth at 10 µM [2]: 1.44%

SMILES: O=S(=O)(Nc1cc(Cl)ccc1O)c1ccc(N/N=C/c2ccc(O)c(O)c2)nc1
- inhibition of growth at 10 µM [1]: 7.47%
- inhibition of growth at 10 µM [2]: -3.03%

SMILES: CN(Cc1ccccc1)S(=O)(=O)c1ccc(N/N=C/c2ccc(O)c(O)c2)nc1
- inhibition [4]: Active
- inhibition [5]: Active
- Activity [3]: Active
- inhibition [6]: Active
- inhibition of growth at 10 µM [1]: 24.6%
- inhibition [17]: Active
- inhibition of growth at 10 µM [2]: 49.4%
- inhibition [7]: Active
- inhibition [8]: Active
- inhibition [18]: Active
- inhibition [9]: Active
- inhibition [10]: Active
- inhibition [11]: Active
- inhibition [12]: Active
- inhibition [13]: Active
- inhibition [14]: Active
- inhibition [15]: Active
- inhibition [16]: Active

SMILES: O=S(=O)(Nc1cccc(Cl)c1)c1ccc(N/N=C/c2ccc(O)c(O)c2)nc1
- inhibition [4]: inactive
- inhibition [5]: Active
- Activity [3]: Active
- inhibition [6]: inactive
- inhibition of growth at 10 µM [1]: 26.3%
- inhibition [17]: Active
- inhibition of growth at 10 µM [2]: 71.7%
- inhibition [7]: Active
- inhibition [8]: inactive
- inhibition [18]: Active
- inhibition [9]: inactive
- inhibition [10]: Active
- inhibition [11]: Active
- inhibition [12]: inactive
- inhibition [13]: inactive
- inhibition [14]: Active
- inhibition [15]: Active
- inhibition [16]: Active

SMILES: COCCNS(=O)(=O)c1ccc(N/N=C/c2ccc(O)c(O)c2)nc1
- inhibition of growth at 10 µM [1]: -9.95%
- inhibition of growth at 10 µM [2]: -11.4%

SMILES: O=S(=O)(c1ccc(N/N=C/c2ccc(O)c(O)c2)nc1)N1CCCC1
- Activity [3]: Active
- inhibition of growth at 10 µM [1]: -13.6%
- inhibition of growth at 10 µM [2]: -2.01%

SMILES: O=S(=O)(NCc1cccc2ccccc12)c1ccc(N/N=C/c2ccc(O)c(O)c2)nc1
- inhibition of growth at 10 µM [1]: -21%
- inhibition of growth at 10 µM [2]: -13.8%

SMILES: CCOC(=O)CN(C)S(=O)(=O)c1ccc(N/N=C/c2ccc(O)c(O)c2)nc1
- inhibition of growth at 10 µM [1]: 0.97%
- inhibition of growth at 10 µM [2]: -13.7%

SMILES: O=S(=O)(Nc1ccc(O)cc1)c1ccc(N/N=C/c2ccc(O)c(O)c2)nc1
- inhibition of growth at 10 µM [1]: -1.92%
- inhibition of growth at 10 µM [2]: -15.1%

SMILES: C[C@@H](NS(=O)(=O)c1ccc(N/N=C/c2ccc(O)c(O)c2)nc1)C1CCCCC1
- inhibition of growth at 10 µM [1]: -25.8%
- inhibition of growth at 10 µM [2]: 3.45%
